Test results reported in patent US20070099828A1, “BIOMARKERS FOR THE EFFICACY OF CALCITONIN AND PARATHYROID HORMONE TREATMENT” (priority 2003, published 2007).
Several values for one entry are separate records, joined by “and”; a condition that tells them apart may be missing. Equal entries are not always repeated. Ends that are not written are not given here.

What was measured:
[1] = cynomolgus monkey, in vivo
Excerpt: Animals. […] Solvent was used as vehicle for the control group.
The animals used in this analysis were cynomolgus monkeys (Macaca fascicularis), supplied by Centre de Recherches Primatologiques, Port Louis, Mauritius. Two animals were used per group and sex. At the beginning of the treatment period, the animals were at least 24 months old, with a body weight of approximately 3 kg. Animals were kept under standard conditions for animal welfare. Animals were examined daily for mortality, food consumption and clinical observations. Body weight was recorded once per week.

Blood pressure = assay type: in vivo, cynomolgus monkeys (Macaca fascicularis); settings: for Blood Pressure Difference: Week 2 vs Week-1; for Blood Pressure Week-1: before dosing
Haematology = assay type: in vivo, cynomolgus monkeys (Macaca fascicularis)
Excerpt: (§1) Blood sampling. […] Blood samples were taken from a peripheral vein.

[2] = Hormone determinations in serum; assay type: in vivo, cynomolgus monkeys (Macaca fascicularis); settings: males
Excerpt: as §1

[3] = urine, females, day −8 (pre-dose)

Sequence: SVSEIQLLHDKGKHLASQERVEWLRKKLQDVHTA [PTS893, Leu8, Asp10, Lys11, Ala16, Gln18, Thr33, Ala34 human PTH 1-34 [hPTH(1-34)]]
- Food Consumption Avg., Both animals [1]: 89.6
- Blood Pressure Week 2 (Blood pressure; Female, first line per animal): 70 mmHg and 87 mmHg
- Blood Pressure Difference (Blood pressure; Female, first line per animal): −22 mmHg and 9 mmHg
- Blood Pressure Week-1 (Blood pressure; Female, first line per animal): 92 mmHg and 78 mmHg
- Blood Pressure Week 2 (Blood pressure; Female, second line per animal): 42 mmHg and 28 mmHg
- Blood Pressure Difference (Blood pressure; Female, second line per animal): −1 mmHg and 4 mmHg
- Blood Pressure Week-1 (Blood pressure; Female, second line per animal): 43 mmHg and 24 mmHg
- Blood Pressure Week 2 (Blood pressure; Male, first line per animal): 87 mmHg and 101 mmHg
- Blood Pressure Difference (Blood pressure; Male, first line per animal): 11 mmHg and −5 mmHg
- Blood Pressure Week-1 (Blood pressure; Male, first line per animal): 76 mmHg and 106 mmHg
- Blood Pressure Week 2 (Blood pressure; Male, second line per animal): 22 mmHg and 33 mmHg
- Blood Pressure Difference (Blood pressure; Male, second line per animal): 4 mmHg and −20 mmHg
- Blood Pressure Week-1 (Blood pressure; Male, second line per animal): 18 mmHg and 53 mmHg
- Ca2+ (urine) (Urinary analysis; males, day 13): 7.55 mmol/L and 13.10 mmol/L
- I.PHOS (urine) (Urinary analysis; males, day 13): 0.10 mmol/L and 0.17 mmol/L
- K+ (urine) (Urinary analysis; males, day 13): 107 mmol/L and 69 mmol/L
- LDH (urine) (Urinary analysis; males, day 13): 14.0 IU/L and 19.0 IU/L
- Mg2+ (urine) (Urinary analysis; males, day 13): 8.70 mmol/L and 5.25 mmol/L
- NAG (urine) (Urinary analysis; males, day 13): 2.9 IU/l and 2.6 IU/l
- CREAT (urine) (Urinary analysis; males, day −5 (before dosing)): 16160 µmol/L and 16120 µmol/L
- CREAT (urine) (Urinary analysis; males, day −6 (before dosing)): 16160 µmol/L and 9940 µmol/L
- Ca2+ (urine) (Urinary analysis; males, day −6 (before dosing)): 5.10 mmol/L and 3.50 mmol/L
- K+ (urine) (Urinary analysis; males, day −6 (before dosing)): 86 mmol/L and 125 mmol/L
- LDH (urine) (Urinary analysis; males, day −6 (before dosing)): 7.0 IU/L and 9.0 IU/L
- CREAT (Urinary analysis; urine, females, day 13): 5620 µmol/L and 8060 µmol/L
- Ca2+ (Urinary analysis; urine, females, day 13): 20.05 mmol/L and 12.35 mmol/L
- Cl− (Urinary analysis; urine, females, day 13): 101 mmol/L and 133 mmol/L
- LDH (Urinary analysis; urine, females, day 13): 10.0 IU/L and 9.0 IU/L
- Mg2+ (Urinary analysis; urine, females, day 13): 6.90 mmol/L and 5.90 mmol/L
- VOLUME (Urinary analysis; urine, females, day 13 of dosing): 52 mL and 42 mL
- CREAT (Urinary analysis; [3]): 19160 µmol/L and 14060 µmol/L
- Ca2+ (Urinary analysis; [3]): 11.50 mmol/L and 6.60 mmol/L
- K+ (Urinary analysis; [3]): 302 mmol/L and 164 mmol/L
- LDH (Urinary analysis; [3]): 11.0 IU/L and 18.0 IU/L
- Mg2+ (Urinary analysis; [3]): 7.35 mmol/L and 4.00 mmol/L
- Na+ (Urinary analysis; [3]): 145 mmol/L and 118 mmol/L
- B (Haematology; females, d 7): 0.06 G/L and 0.04 G/L
- L (Haematology; females, d 7): 6.29 G/L and 5.87 G/L
- MCH (Haematology; females, d 7): 18.9 pg and 19 pg
- MCV (Haematology; females, d 7): 67 fL and 68 fL
- PCV (Haematology; females, d 7): 0.41 l/l and 0.43 l/l
- PLAT (Haematology; females, d 7): 525 G/L and 382 G/L
- RBC (Haematology; females, d 7): 6.2 T/l and 6.4 T/l
- WBC (Haematology; females, d 7): 18.4 G/l and 12.3 G/l
- B (Haematology; females, d 13): 0.03 G/L and 0.04 G/L
- E (Haematology; females, d 13): 0.21 G/L and 0.29 G/L
- HB (Haematology; females, d 13): 11.3 g/dL
- L (Haematology; females, d 13): 5.81 G/L and 5.21 G/L
- MCH (Haematology; females, d 13): 19.3 pg and 19.2 pg
- MCV (Haematology; females, d 13): 67 fL and 66 fL
- PCV (Haematology; females, d 13): 0.4 l/l and 0.39 l/l
- PLAT (Haematology; females, d 13): 496 G/L and 309 G/L
- RBC (Haematology; females, d 13): 5.9 T/l
- WBC (Haematology; females, d 13): 13.2 G/l and 10.1 G/l
- L (Haematology; females, d −8 (before dosing)): 3.92 G/L and 4.4 G/L
- MCH (Haematology; females, d −8 (before dosing)): 19.3 pg
- MCV (Haematology; females, d −8 (before dosing)): 63 fL and 64 fL
- PCV (Haematology; females, d −8 (before dosing)): 0.44 l/l and 0.43 l/l
- RBC (Haematology; females, d −8 (before dosing)): 6.9 T/l and 6.7 T/l
- WBC (Haematology; females, d −8 (before dosing)): 10.1 G/l and 14.3 G/l
- monocyte count (Haematology; females, d −8 (before dosing)): 0.8 G/l and 0.54 G/l
- B (Haematology; males, d 7): 0.02 G/l and 0.03 G/l
- HB (Haematology; males, d 7): 11.3 g/dL and 11.9 g/dL
- L (Haematology; males, d 7): 5.91 G/l and 5.30 G/l
- MCH (Haematology; males, d 7): 17.7 pg and 20.2 pg
- MCHC (Haematology; males, d 7): 29.3 g/dL and 30.2 g/dL
- MCV (Haematology; males, d 7): 60 fL and 67 fL
- PCV (Haematology; males, d 7): 0.38 l/l and 0.40 l/l
- PLAT (Haematology; males, d 7): 456 G/l and 589 G/l
- RBC (Haematology; males, d 7): 6.4 T/l and 5.9 T/l
- WBC (Haematology; males, d 7): 8.4 G/l and 15.0 G/l
- B (Haematology; males, d 13): 0.04 G/l and 0.03 G/l
- HB (Haematology; males, d 13): 11.7 g/dL and 11.8 g/dL
- L (Haematology; males, d 13): 5.37 G/l and 4.86 G/l
- M (Haematology; males, d 13): 0.27 G/l and 0.46 G/l
- MCH (Haematology; males, d 13): 17.3 pg and 20.3 pg
- MCHC (Haematology; males, d 13): 27.5 g/dL and 29.2 g/dL
- MCV (Haematology; males, d 13): 63 fL and 70 fL
- PCV (Haematology; males, d 13): 0.43 l/l and 0.41 l/l
- PLAT (Haematology; males, d 13): 330 G/l and 452 G/l
- RBC (Haematology; males, d 13): 6.8 T/l and 5.8 T/l
- WBC (Haematology; males, d 13): 8.8 G/l and 11.9 G/l
- HB (Haematology; males, d −6 (before dosing)): 13.6 g/dL and 13.2 g/dL
- L (Haematology; males, d −6 (before dosing)): 5.07 G/l and 3.99 G/l
- MCH (Haematology; males, d −6 (before dosing)): 18.0 pg and 20.4 pg
- MCHC (Haematology; males, d −6 (before dosing)): 31.5 g/dL and 33.1 g/dL
- MCV (Haematology; males, d −6 (before dosing)): 57 fL and 62 fL
- PCV (Haematology; males, d −6 (before dosing)): 0.43 l/l and 0.40 l/l
- PLAT (Haematology; males, d −6 (before dosing)): 325 G/l and 459 G/l
- RBC (Haematology; males, d −6 (before dosing)): 7.6 T/l and 6.5 T/l
- WBC (Haematology; males, d −6 (before dosing)): 10.4 G/l and 9.1 G/l
- ACTH ([2]; day 7): 101 pg/mL and 88 pg/mL
- ALDOST ([2]; day 7): 380 pg/mL and 471 pg/mL
- C-PEPTI ([2]; day 7): 2.90 ng/mL and 4.40 ng/mL
- CORTISOL ([2]; day 7): 1156 nmol/L and 1432 nmol/L
- CT ([2]; day 7): 4.0 pg/mL and 7.8 pg/mL
- G.H. ([2]; day 7): 15.8 ng/mL and 11.6 ng/mL
- GASTRIN ([2]; day 7): 84 pg/mL and 98 pg/mL
- GLUCAG ([2]; day 7): 656 pg/mL and 497 pg/mL
- INSULIN ([2]; day 7): 22.0 mU/l and 38.0 mU/l
- IPH ([2]; day 7): 96 pg/mL and 62 pg/mL
- S.MED ([2]; day 7): 749 ng/mL and 828 ng/mL
- T3 ([2]; day 7): 3.47 nmol/L and 2.76 nmol/L
- T4 ([2]; day 7): 90 nmol/L and 80 nmol/L
- VD25-H ([2]; day 7): 62 nmol/L
- ACTH ([2]; day 13): 83 pg/mL and 91 pg/mL
- ALDOST ([2]; day 13): 592 pg/mL and 651 pg/mL
- C-PEPTI ([2]; day 13): 2.10 ng/mL and 2.40 ng/mL
- CORTISOL ([2]; day 13): 1299 nmol/L and 1212 nmol/L
- CT ([2]; day 13): 4.6 pg/mL and 7.6 pg/mL
- G.H. ([2]; day 13): 12.1 ng/mL and 14.0 ng/mL
- GASTRIN ([2]; day 13): 78 pg/mL and 94 pg/mL
- GLUCAG ([2]; day 13): 786 pg/mL and 739 pg/mL
- INSULIN ([2]; day 13): 14.0 mU/l and 10.0 mU/l
- IPH ([2]; day 13): 78 pg/mL and 55 pg/mL
- S.MED ([2]; day 13): 914 ng/mL and 867 ng/mL
- T3 ([2]; day 13): 3.55 nmol/L and 2.43 nmol/L
- T4 ([2]; day 13): 68 nmol/L and 56 nmol/L
- VD25-H ([2]; day 13): 50 nmol/L
- ALDOST ([2]; day −6 (pre-dose)): 265 pg/mL and 141 pg/mL
- CORTISOL ([2]; day −6 (pre-dose)): 1662 nmol/L and 1506 nmol/L
- CT ([2]; day −6 (pre-dose)): 6.1 pg/mL and 10.4 pg/mL
- G.H. ([2]; day −6 (pre-dose)): 13.4 ng/mL and 8.5 ng/mL
- GLUCAG ([2]; day −6 (pre-dose)): 858 pg/mL and 694 pg/mL
- INSULIN ([2]; day −6 (pre-dose)): 16.0 mU/l and 12.0 mU/l
- IPH ([2]; day −6 (pre-dose)): 123 pg/mL and 71 pg/mL
- PROLACT ([2]; day −6 (pre-dose)): 7.1 ng/mL and 7.5 ng/mL
- T3 ([2]; day −6 (pre-dose)): 2.48 nmol/L and 1.38 nmol/L
- T4 ([2]; day −6 (pre-dose)): 84 nmol/L and 59 nmol/L
- VD25-H ([2]; day −6 (pre-dose)): 77 nmol/L and 88 nmol/L
- ACTH ([2]; day −6 relative to start of dosing (pre-dose)): 96 pg/mL and 115 pg/mL
